In ChEMBL document CHEMBL3286361, “Design and discovery of flavonoid-based HIV-1 integrase inhibitors targeting both the active site and the interaction with LEDGF/p75” (Bioorg Med Chem, 2014):
In brackets after ≈: the same amount, converted by molar mass.

What was measured:
[1] = molecular target: T1, Human immunodeficiency virus type 1 integrase (Human immunodeficiency virus 1, UniProt Q7ZJM1); assay: Inhibition of recombinant HIV-1 integrase 3'-processing activity using 32P 5' end-labeled linear 21'mer as substrate preincubated for 30 mins prior to substrate challenge by phosphorimaging analysis
[2] = molecular target: T1, Human immunodeficiency virus type 1 integrase; assay: Inhibition of recombinant HIV-1 integrase strand transfer activity using 32P 5' end-labeled linear 21'mer as substrate preincubated for 30 mins prior to substrate challenge by phosphorimaging analysis
[3] = tested on: Human immunodeficiency virus 1; assay: Antiviral activity against HIV-1 3B infected in human C8166 cells assessed as inhibition of virus-induced cytopathogenicity by measuring syncytial cell number after 3 days by inverted microscopic analysis; type: functional, organism-based; settings: Human immunodeficiency virus 1, 3B, C8166, 72 h
[4] = Cytotoxicity against human C8166 cells assessed as inhibition of cell proliferation after 72 hrs by MTT assay; type: cell-based
[5] = Therapeutic index, ratio of CC50 for human C8166 cells to EC50 for HIV-1 3B infected in human C8166 cells; type: cell-based; settings: HIV-1 3B infected C8166 cells, read-out: Ratio CC50/EC50
[6] = molecular target: T1, Human immunodeficiency virus type 1 integrase; assay: Inhibition of His6-tagged HIV-1 integrase assessed as decrease in integrase-Flag-LEDGF/p75 interaction preincubated with enzyme for 30 mins followed by addition of Flag-LEDGF/p75 for 1 hr by AlphaScreen assay

T1 sequence (Q7ZJM1 whole entry): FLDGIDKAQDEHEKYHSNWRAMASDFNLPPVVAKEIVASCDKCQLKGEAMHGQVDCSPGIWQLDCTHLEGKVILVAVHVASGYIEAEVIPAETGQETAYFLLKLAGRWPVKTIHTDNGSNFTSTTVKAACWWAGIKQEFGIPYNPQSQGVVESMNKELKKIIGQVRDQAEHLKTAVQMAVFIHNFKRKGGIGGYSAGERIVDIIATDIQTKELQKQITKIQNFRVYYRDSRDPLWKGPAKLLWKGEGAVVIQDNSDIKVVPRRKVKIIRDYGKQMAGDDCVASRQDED

Compound | IC50 [1] | IC50 [2] | EC50 [3] | IC50 [6] | CC50 at 72 h [4] | selectivity ratio [5]
O=c1cc(-c2ccc(O)c(O)c2)oc2cc(O)cc(O)c12 [LUTEOLIN] | > 20 µM | 8.9 µM | 2.48 µg/mL (≈ 8.66 µM) | 0.45 µM | 17.9 µg/mL (≈ 62.5 µM) | 7
O=c1cc(-c2ccccc2)oc2cc(O)c(O)c(O)c12 [BAICALEIN] | – | – | 1.67 µg/mL (≈ 6.18 µM) | – | 30.3 µg/mL (≈ 112 µM) | –
CC(C)(C)Oc1cc(O)c2c(c1)O[C@H](c1ccc(O)cc1)CC2=O | > 100 µM | > 100 µM | 3.05 µg/mL (≈ 9.29 µM) | > 20 µM | 25.4 µg/mL (≈ 77.4 µM) | 8
O=c1c(O)c(-c2ccc(O)c(O)c2)oc2cc(O)cc(O)c12 [QUERCETIN] | > 20 µM | 8 µM | 2.05 µg/mL (≈ 6.78 µM) | 0.6 µM | 105 µg/mL (≈ 347 µM) | 44
CC(C)(C)Oc1cc2oc(-c3ccccc3)cc(=O)c2c(O)c1O | > 100 µM | > 100 µM | 8.45 µg/mL (≈ 25.9 µM) | > 20 µM | 40.5 µg/mL (≈ 124 µM) | 5
CC(C)(C)Oc1cc(O)c2c(=O)c(-c3ccc(O)cc3)coc2c1 | > 100 µM | 70 µM | > 47.7 µg/mL | > 20 µM | 47.7 µg/mL (≈ 146 µM) | –
O=c1c(-c2ccc(O)cc2)coc2cc(OCc3ccc(F)cc3)cc(O)c12 | > 100 µM | 80 µM | 11 µg/mL (≈ 29.1 µM) | > 20 µM | > 200 µg/mL | > 18
CC(C)(C)Oc1cc(O)c2c(=O)cc(-c3ccccc3)oc2c1 | > 100 µM | 50 µM | 12.1 µg/mL (≈ 39 µM) | > 20 µM | 61.2 µg/mL (≈ 197 µM) | 5
O=c1cc(-c2ccc(O)c(O)c2)oc2cc(OCc3ccc(F)cc3)cc(O)c12 | > 20 µM | > 20 µM | 7.37 µg/mL (≈ 18.7 µM) | – | 16.2 µg/mL (≈ 41.1 µM) | 2
O=c1c(O)c(-c2ccc(OCc3ccc(F)cc3)c(O)c2)oc2cc(O)cc(O)c12 | > 20 µM | > 20 µM | 4.1 µg/mL (≈ 9.99 µM) | 1.4 µM | 23.4 µg/mL (≈ 57 µM) | 6
O=c1c(O)c(-c2ccc(O)c(OCc3ccc(F)cc3)c2)oc2cc(O)cc(O)c12 | > 20 µM | > 20 µM | 0.47 µg/mL (≈ 1.15 µM) | 1.8 µM | 23.8 µg/mL (≈ 58 µM) | 51
O=C1C[C@@H](c2ccc(O)cc2)Oc2cc(O)cc(O)c21 [NARINGENIN] | > 20 µM | > 20 µM | 9.47 µg/mL (≈ 34.8 µM) | 1.7 µM | 142 µg/mL (≈ 520 µM) | 15
CC(C)(C)Oc1cc(O)c2c(=O)cc(-c3ccc(O)cc3)oc2c1 | > 20 µM | > 20 µM | 3.2 µg/mL (≈ 9.81 µM) | > 20 µM | 25 µg/mL (≈ 76.6 µM) | 8
O=C1C[C@@H](c2ccc(O)cc2)Oc2cc(OCc3ccc(F)cc3)cc(O)c21 | > 100 µM | > 100 µM | 2.06 µg/mL (≈ 5.42 µM) | – | 11.5 µg/mL (≈ 30.2 µM) | 6
O=c1c(OCc2ccc(F)cc2)c(-c2ccc(O)c(O)c2)oc2cc(O)cc(O)c12 | > 20 µM | > 20 µM | 1.95 µg/mL (≈ 4.75 µM) | 0.38 µM | 22.5 µg/mL (≈ 54.8 µM) | 12

More lines, main results first:

IC50 [1] | IC50 [2] | EC50 [3] | IC50 [6] | Compound | CC50 at 72 h [4] | selectivity ratio [5]
> 20 µM | > 20 µM | 4.46 µg/mL (≈ 16.5 µM) | 1.5 µM | O=c1cc(-c2ccc(O)cc2)oc2cc(O)cc(O)c12 [APIGENIN] | 17.2 µg/mL (≈ 63.6 µM) | 4
> 20 µM | > 20 µM | > 8.35 µg/mL | > 20 µM | O=c1cc(-c2ccccc2)oc2cc(OCc3ccc(F)cc3)cc(O)c12 | 8.35 µg/mL (≈ 23 µM) | –
> 20 µM | > 20 µM | 2.21 µg/mL (≈ 6.22 µM) | 1.6 µM | O=c1cc(-c2ccc(O)c(O)c2)oc2cc(N3CCOCC3)cc(O)c12 | 63.6 µg/mL (≈ 179 µM) | 29
> 20 µM | > 20 µM | 5.05 µg/mL (≈ 13.6 µM) | 0.97 µM | O=c1c(O)c(-c2ccc(O)c(O)c2)oc2cc(N3CCOCC3)cc(O)c12 | 24.7 µg/mL (≈ 66.5 µM) | 5
> 20 µM | > 20 µM | > 200 µg/mL | > 20 µM | O=c1cc(-c2ccccc2)oc2cc(N3CCOCC3)cc(O)c12 | > 200 µg/mL | –
> 20 µM | > 20 µM | 13.9 µg/mL (≈ 51.4 µM) | 1.1 µM | O=c1c(-c2ccc(O)cc2)coc2cc(O)cc(O)c12 [GENISTEIN] | 36.2 µg/mL (≈ 134 µM) | 3
> 20 µM | > 20 µM | 13.4 µg/mL (≈ 52.7 µM) | 1.4 µM | O=c1cc(-c2ccccc2)oc2cc(O)cc(O)c12 [CHRYSIN] | 110 µg/mL (≈ 433 µM) | 8
> 20 µM | > 20 µM | – | > 20 µM | O=c1c(O)c(-c2ccc3c(c2)OC(c2ccccc2)(c2ccccc2)O3)oc2cc(O)cc(O)c12 | – | –
> 20 µM | 7.6 µM | 4.54 µg/mL (≈ 11.1 µM) | 1.8 µM | O=c1c(O)c(-c2ccc(O)c(O)c2)oc2cc(O)cc(OCc3ccc(F)cc3)c12 | 24 µg/mL (≈ 58.5 µM) | 5
> 20 µM | > 20 µM | 0.826 µg/mL (≈ 2.43 µM) | 1.7 µM | O=c1c(-c2ccc(O)cc2)coc2cc(N3CCOCC3)cc(O)c12 | > 200 µg/mL | > 242
> 20 µM | > 20 µM | 68.4 µg/mL (≈ 202 µM) | 1.7 µM | O=c1cc(-c2ccc(O)cc2)oc2cc(N3CCOCC3)cc(O)c12 | 105 µg/mL (≈ 311 µM) | 1.5
20 µM | 4 µM | > 5.68 µg/mL | 0.94 µM | O=c1c(O)c(-c2ccc(O)c(O)c2)oc2cc(OCc3ccc(F)cc3)cc(O)c12 | 5.68 µg/mL (≈ 13.8 µM) | –
> 20 µM | 7 µM | 3.04 µg/mL (≈ 8.03 µM) | > 20 µM | O=c1cc(-c2ccccc2)oc2cc(OCc3ccc(F)cc3)c(O)c(O)c12 | 5.8 µg/mL (≈ 15.3 µM) | 2
80 µM | 35 µM | 10.7 µg/mL (≈ 28.3 µM) | > 20 µM | O=c1cc(-c2ccc(O)cc2)oc2cc(OCc3ccc(F)cc3)cc(O)c12 | 16.8 µg/mL (≈ 44.4 µM) | 1.6
